From US20100105602A1, “TREATMENT OF INT[…] INFECTIONS” (Novozymes A/S, priority 2008, published 2010)

Key:
[1] = system: Staphylococcus aureus ATCC25923 (MSSA) in THP-1 macrophages; assay: In vitro intracellular activity in infected THP-1 macrophages, S. aureus ATCC25923; assay type: cell-based; settings: for Emax (95% CI): decrease in log CFU after 24 hours compared to original inoculum
Method: (§1) For studies of Plectasin, two strains of S. aureus were applied: ATCC25923 (MSSA) and E33235 (MSSA, axil, clinical isolate from Statens Serum Institute, Denmark).
(§2) For studies of Defensin2114, […] of S. aureus were used: ATCC25923 (MSSA), MRSA (clinical septicaemia isolate, Statens Serum Institute, ref. no. 1-15479) and VRSA2 (Pennsylvania HIP 11983).
(§3) Overnight culture of bacteria was opsonized for 45 min with human serum (AB positive, Lonza, USA). Afterwards the bacteria were tittered using a spectrophotometer (CECIL 2040) and THP-1 macrophages were counted and then infected with 4 bacteria/cell. THP-1 cells were cultured in RPMI 1640 medium supplemented with fetal calf serum.
(§4) The bacteria were incubated with cells for 1 hour at 37° C., CO2 5%, to allow phagocytosis.
(§5) After 1 hour of incubation the infected cells were incubated 45 min with Gentamicin (50 micrograms/mL) to eradicate remaining non-phagocytosed bacteria. To remove Gentamicin after incubation cells were washed 3× with PBS. After the third wash, cells were re-suspended in RPMI 1640 medium (+10% fetal calf serum) and Plectasin or Defensin2114 was added at desired concentrations (0-128×MIC). One sample was incubated with Gentamicin at 1×MIC for control of intracellular growth. In studies of Defensin2114 the activity was compared to that of vancomycin and daptomycin.
(§6) Cells were incubated in 6-well plates for 24 hours at 37° C., CO2 5%.
(§7) After incubation cells were washed in PBS and subsequently re-suspended in sterile water to release intracellular bacteria.
(§8) Samples were diluted regarding to the expected amount of CFU and spread on TSA plates and incubated at 35° C. overnight. After 24 hours incubation the CFU were counted.
(§9) The samples may be stored at −20° C. for up to one week. Samples were sonicated and proteins titered as described by Lowry et al. hereby obtaining results as CFU/mg protein. All samples were tested in triplicates.
(§10) In vitro intracellular dose-response studies: For analysis of dose-effect relationships, the Hill-equation (slope=1) was employed to calculate the maximal relative efficacy, Emax, static concentration (Cstatic) and goodness-of-fit. These parameters were determined using non-linear regression.

[2] = system: Staphylococcus aureus MRSA (1-15479) in THP-1 macrophages; assay: In vitro intracellular activity in infected THP-1 macrophages, MRSA (1-15479); assay type: cell-based; settings: for Cstatic / Emax (95% CI): MRSA (1-15479), THP-1 macrophages, 24 hours
Method: as §2, §3, §4, §5, §6, §7, §8, §9, §10

[3] = system: Staphylococcus aureus VRSA2 (Pennsylvania HIP 11983) in THP-1 macrophages; assay: In vitro intracellular activity in infected THP-1 macrophages, VRSA2; assay type: cell-based; settings: for Cstatic / Emax (95% CI): VRSA2, THP-1 macrophages, 24 hours
Method: as §2, §3, §4, §5, §6, §7, §8, §9, §10

[4] = system: Staphylococcus aureus E33235 (MSSA) in THP-1 macrophages; assay: In vitro intracellular activity in infected THP-1 macrophages, S. aureus E33235; assay type: cell-based; settings: S. aureus E33235, THP-1 macrophages, 24 hours
Method: as §1, §3, §4
After 1 hour of incubation the infected cells were incubated 45 min with Gentamicin (50 micrograms/mL) to eradicate remaining non-phagocytosed bacteria. To remove Gentamicin after incubation cells were washed 3× with PBS. […]
Samples were diluted regarding to the expected amount of CFU and spread on TSA plates and incubated at 35° C. overnight. After 24 hours incubation the CFU were counted. […]
as §10

[5] = Kinetics study, serum, and PK/PD parameters of dosing regimens; assay type: in vivo, mice; parameters: AUC(free) / Peak / Cpeak: unit not given here; settings: for AUC(free): free serum concentrations
Method: Animals were dosed from 4.25-34 mg/kg
The serum was separated and stored at −20° C. until analysis by LCMSMS using internal and external standards. Serum binding was calculated to 90%.
Pharmacokinetic parameters were determined through intrapolation from free serum concentrations using GraphPad Prism.

[6] = system: Staphylococcus aureus E33235; assay: Mouse peritonitis model, intra- and extracellular effect; assay type: in vivo, mice
Method: This Example presents an in vivo study of the efficacy of Plectasin against intracellular Staphylococcus aureus E33235 in an animal model of infection (peritonitis), including assessment of both intra- and extracellular effect. Staphylococcus aureus E33235 is a clinically isolated strain obtainable from Statens Serum Institut, Denmark.
Staphylococcus aureus E33235 was spread on 5% blood plates and incubated overnight at 37° C. at ambient air. A 10% w/v Mucin solution was prepared in NaCl. The solution was sterilized and pH adjusted to pH 7.0.
Colonies of Staphylococcus aureus were suspended in saline to approx. 10^8 CFU/mL (OD=0.13). A 1:1 dilution with the 10% Mucin stock solution was prepared making a solution of 5% Mucin and 5×10^7 CFU/mL.
A solution of 50 mg/mL lysostaphin was prepared in HBSS (Hanks Balanced Salt Solution).
Two hours before treatment (T=0) the mice were inoculated i.p. with 0.5 mL Staphylococcus aureus suspension (with 5% Mucin).
The injected dose volume was 0.6 or 0.3 mL/animal. The first dose was injected two hours after inoculation (T=2).
At T=2 and T=6 hours control animals were sacrificed and peritoneal wash performed. 24 hours after first treatment, the remaining treated animals were sacrificed. Peritoneal wash was performed after sacrifice of animals by cervical dislocation.
Negative control (cell free): Inoculum at 10^8 CFU/mL of S. aureus E 33235 (OD=0.13) in saline was prepared just before the last separation assay of the day. The negative control was handled exactly as the test samples. Microscopy and cell-count of the negative control are not shown. Each sample was handled as described in Table 6.
CFU counts from peritoneal fluid from treated animals were compared to PK/PD parameters to assess the correlation between intra- and extracellular effect of Plectasin to Cpeak, T>MIC and AUC/MIC.
Correlation (Hills) between the most predictive PK/PD-parameter. Effect was determined as the decrease in CFU in the peritoneal fluid 24 hours after the first treatment. Parameters were estimated by multiple regression analysis.

[7] = S. aureus ATCC25923, THP-1 macrophages, 24 hours, no apparent growth
[8] = S. aureus ATCC25923, THP-1 macrophages
[9] = S. aureus ATCC25923, THP-1 macrophages, 24 hours, Table 1
[10] = b.i.d. treatment with 34 mg/kg, peritoneal fluid, 24 hours after first treatment

## CCCCCCCCCC(=O)N[C@@H](Cc1c[nH]c2ccccc12)C(=O)N[C@H](CC(N)=O)C(=O)N[C@@H](CC(=O)O)C(=O)N[C@@H]1C(=O)NCC(=O)N[C@@H](CCCN)C(=O)N[C@@H](CC(=O)O)C(=O)N[C@H](C)C(=O)N[C@@H](CC(=O)O)C(=O)NCC(=O)N[C@H](CO)C(=O)N[C@@H]([C@H](C)CC(=O)O)C(=O)N[C@@H](CC(=O)c2ccccc2N)C(=O)O[C@@H]1C [Daptomycin, reference compound]
[1]; [7]
  Cstatic: 0.6 ×MIC
[1]; [8]
  Emax (95% CI): −1.00 log CFU
[2]
  Cstatic: 1.8 ×MIC
  Emax (95% CI): −0.85 log CFU
[3]
  Cstatic: 1.3 ×MIC
  Emax (95% CI): −0.29 log CFU

## CC[C@H](C)[C@@H]1NC(=O)[C@H](CO)NC(=O)[C@H](CCCCN)NC(=O)[C@@H]2CSSC[C@@H](C(=O)N[C@@H](Cc3ccc(O)cc3)C(=O)O)NC(=O)[C@H](CCCCN)NC(=O)[C@@H]3CSSC[C@H](NC(=O)[C@H](CCC(N)=O)NC(=O)[C@H](CCSC)NC(=O)[C@H](CC(=O)O)NC(=O)[C@H](CC(=O)O)NC(=O)[C@H](CCC(=O)O)NC(=O)[C@H](CC(=O)O)NC(=O)[C@H](Cc4c[nH]c5ccccc45)NC(=O)[C@@H]4CCCN4C(=O)CNC(=O)[C@H](CC(N)=O)NC(=O)[C@@H](NC(=O)CNC(=O)[C@H](Cc4ccccc4)NC(=O)CN)CSSC[C@H](NC(=O)[C@H](Cc4ccc(O)cc4)NC(=O)CNC(=O)CNC(=O)[C@H](CCCCN)NC(=O)[C@H](Cc4ccc(O)cc4)NC(=O)CNC(=O)[C@H](CCCCN)NC1=O)C(=O)N[C@@H](C)C(=O)N[C@@H](CCCCN)C(=O)NCC(=O)NCC(=O)N[C@@H](Cc1ccccc1)C(=O)N[C@@H](C(C)C)C(=O)N3)C(=O)N[C@@H](Cc1c[nH]cn1)C(=O)N[C@@H](CC(N)=O)C(=O)N[C@@H](Cc1c[nH]cn1)C(=O)N2 [Plectasin]
[4]
  Cstatic: 0.6 ×MIC
  Emax (CI): −0.97 log CFU
[1]; [9]
  Cstatic: 0.6 ×MIC
  Emax (CI): −1.35 log CFU
[5]; dose 4.25 mg/kg
  Peak: 1.61
  AUC(free): 1.901
[5]; dose 8.5 mg/kg
  Peak: 2.32
  AUC(free): 3.955
[5]; dose 17 mg/kg
  Peak: 4.95
  AUC(free): 8
[5]; dose 34 mg/kg
  Peak: 5.99
  AUC(free): 13.25
[5]; mouse, serum, LCMSMS, read-out: Serum binding (converted)
  fraction unbound: 0.1
[5]; regimen 1: 34 mg/kg, 1 dose in 24 hours
  Cpeak: 5.99
[5]; regimen 2: 17 mg/kg, 1 dose in 24 hours
  Cpeak: 4.95
[5]; regimen 3: 8.5 mg/kg, 1 dose in 24 hours
  Cpeak: 2.32
[5]; regimen 4: 4.25 mg/kg, 1 dose in 24 hours
  Cpeak: 1.61
[5]; regimen 5: 17 mg/kg, 2 doses in 24 hours
  Cpeak: 5.99
[5]; regimen 6: 8.5 mg/kg, 2 doses in 24 hours
  Cpeak: 2.32
[5]; regimen 7: 34 mg/kg, 3 doses in 24 hours
  Cpeak: 5.99
[5]; regimen 8: 4.25 mg/kg, 3 doses in 24 hours
  Cpeak: 1.61
[5]; regimen 9: 8.5 mg/kg, 4 doses in 24 hours
  Cpeak: 2.32
[5]; regimen 10: 8.5 mg/kg, 6 doses in 24 hours
  Cpeak: 2.32
[6]; [10]
  Max Δ log Decrease in CFU Extracellularly: −2.55 (SD: 0.150) Δ log
  Max Δ log Decrease in CFU Intracellularly: −1.25 (SD: 0.058) Δ log
[6]; s.c. treatment, S. aureus E33235 i.p.
  effect in the mouse peritonitis model: showed both intra- and extracellular effect

## CN[C@H](CC(C)C)C(=O)N[C@H]1C(=O)N[C@@H](CC(N)=O)C(=O)N[C@H]2C(=O)N[C@H]3C(=O)N[C@H](C(=O)N[C@H](C(=O)O)c4cc(O)cc(O)c4-c4cc3ccc4O)[C@H](O)c3ccc(c(Cl)c3)Oc3cc2cc(c3O[C@@H]2O[C@H](CO)[C@@H](O)[C@H](O)[C@H]2O[C@H]2C[C@](C)(N)[C@H](O)[C@H](C)O2)Oc2ccc(cc2Cl)[C@H]1O [Vancomycin, reference compound]
[1]; [7]
  Cstatic: 2.9 ×MIC
[1]; [8]
  Emax (95% CI): −0.64 log CFU
[2]
  Cstatic: 6.2 ×MIC
  Emax (95% CI): −0.66 log CFU

## Defensin2114: defensin polypeptide shown as SEQ ID NO: 1; synthetic defensin derived from Plectasin (GFGCNGPWNEDDLRCHNHCKSIKGYKGGYCAKGGFVCKCY)
[1]; ATCC25923
  Emax comparison, one-way ANOVA (Tukeys test): significantly lower Emax value than both daptomycin and vancomycin
[1]; [7]
  Cstatic: 0.8 ×MIC
[1]; [8]
  Emax (95% CI): −1.51 log CFU
[2]
  Cstatic: 1.1 ×MIC
  Emax (95% CI): −0.93 log CFU
[2]; MRSA, P<0.01
  Emax comparison, one-way ANOVA (Tukeys test): significantly lower Emax value than vancomycin
[3]; VRSA
  Emax comparison, one-way ANOVA (Tukeys test): No difference in Emax value between Defensin2114 and daptomycin
[3]
  Cstatic: 2.3 ×MIC
  Emax (95% CI): −0.22 log CFU
